Test results reported in patent US11980630B2 (priority 2017, dated 2024).
Entries after “also recorded” stand apart in the source; their conditions may differ. Where two headings read alike, the source gives them in different places.

What was measured:
Huh7 cells = conditions: human
[1] = tested on: recombinant reporter EBOV; experiment: microbe, parasite or virus in culture; type: cell-based, Ebola virus; conditions: for EC50: Zaire ebolavirus
MARV (Ci67) = experiment: organism not typed; type: cell-based, Marburg virus; conditions: for EC50: HeLa
HeLa cells = conditions: human
SUDV (Gulu) = experiment: microbe, parasite or virus in culture; type: cell-based, Sudan virus; conditions: for EC50: Sudan ebolavirus, HeLa
Rift Valley Fever = experiment: microbe, parasite or virus in culture; type: cell-based; conditions: Huh-7, read-out: Rift Valley Fever EC50
Lassa Virus = experiment: microbe, parasite or virus in culture; type: cell-based; conditions: Mammarenavirus lassaense, Huh-7, read-out: Lassa Virus EC50
EBOV (Makona) = experiment: microbe, parasite or virus in culture; type: cell-based, Ebola virus; conditions: for EC50: Zaire ebolavirus, HeLa
Zika virus NS5 MTase = biological target: T1, Zika virus NS5 MTase (Zika virus, UniProt A0A024B7W1); experiment: biochemical
T1 construct: Zika virus NS5 MTase: 500 nM

[2] = biological target: SARS-CoV nsp14 (N7 MTase) (Severe acute respiratory syndrome coronavirus, UniProt P0C6X7); type: biochemical
[3] = biological target: MERS polymerase complex (12HC/7HC8) (Middle East respiratory syndrome-related coronavirus, UniProt K9N7C7); type: biochemical
Dengue virus NS5 MTase = biological target: T2, Dengue virus NS5 MTase (Dengue virus type 2, UniProt P29990); experiment: biochemical
T2 construct: Dengue virus NS5 MTase: 500 nM
T2 sequence (P29990 2493-2755 limits assumed): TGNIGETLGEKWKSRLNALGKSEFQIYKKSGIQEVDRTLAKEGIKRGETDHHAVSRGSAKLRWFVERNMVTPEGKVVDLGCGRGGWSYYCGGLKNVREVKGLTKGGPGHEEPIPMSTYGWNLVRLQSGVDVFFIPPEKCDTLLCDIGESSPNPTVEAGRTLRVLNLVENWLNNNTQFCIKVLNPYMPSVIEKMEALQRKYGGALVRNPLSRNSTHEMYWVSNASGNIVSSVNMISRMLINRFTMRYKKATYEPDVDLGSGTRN

hMPV MTase = biological target: T3, hMPV MTase (Human metapneumovirus, UniProt Q6WB93); experiment: biochemical; type: biochemical
T3 construct: hMPV MTase: 1 μM

RSV MTase = biological target: T4, RSV MTase (Human respiratory syncytial virus A, UniProt P28887); experiment: biochemical; type: biochemical
T4 construct: RSV MTase: 4 μM

[4] = biological target: human N7 MTase (hN7 or RNMT) (Homo sapiens, UniProt O43148); experiment: biochemical
[5] = biological target: SARS polymerase complex (12HC/7HC8) (Severe acute respiratory syndrome coronavirus, UniProt P0C6X7); type: biochemical
in vitro = conditions: human
MARV = conditions: cited from earlier work
EBOV = conditions: cited from earlier work
[6] = Huh-7, read-out: EC50 against EBOV in Huh7 cells
[7] = read-out: MARV EC50 (50% inhibition of virus-induced CPE)
[8] = read-out: SUDV EC50 (50% inhibition of virus-induced CPE)
[9] = read-out: EBOV EC50 (50% inhibition of virus-induced CPE)

T1 sequence (A0A024B7W1 2521-2785 limits assumed): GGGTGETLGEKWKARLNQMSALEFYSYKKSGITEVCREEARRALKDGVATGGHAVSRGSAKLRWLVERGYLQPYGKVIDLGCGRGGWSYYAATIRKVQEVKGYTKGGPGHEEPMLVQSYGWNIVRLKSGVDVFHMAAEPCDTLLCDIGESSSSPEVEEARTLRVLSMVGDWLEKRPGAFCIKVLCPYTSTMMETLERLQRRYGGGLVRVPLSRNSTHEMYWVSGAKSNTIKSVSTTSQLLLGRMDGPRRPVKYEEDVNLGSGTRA
T3 sequence (Q6WB93 1599-2005 limits assumed): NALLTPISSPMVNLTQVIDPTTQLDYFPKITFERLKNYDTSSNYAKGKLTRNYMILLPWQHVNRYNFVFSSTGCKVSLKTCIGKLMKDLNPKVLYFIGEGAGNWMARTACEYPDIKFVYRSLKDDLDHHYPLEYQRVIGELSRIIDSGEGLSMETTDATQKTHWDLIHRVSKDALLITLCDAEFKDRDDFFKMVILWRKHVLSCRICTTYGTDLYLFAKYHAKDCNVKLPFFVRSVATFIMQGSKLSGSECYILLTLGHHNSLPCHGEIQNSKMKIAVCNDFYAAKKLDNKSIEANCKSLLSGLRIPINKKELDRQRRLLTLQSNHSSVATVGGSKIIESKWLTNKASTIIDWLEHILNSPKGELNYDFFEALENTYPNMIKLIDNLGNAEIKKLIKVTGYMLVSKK
Sequence of human N7 MTase (hN7 or RNMT) (O43148 whole entry): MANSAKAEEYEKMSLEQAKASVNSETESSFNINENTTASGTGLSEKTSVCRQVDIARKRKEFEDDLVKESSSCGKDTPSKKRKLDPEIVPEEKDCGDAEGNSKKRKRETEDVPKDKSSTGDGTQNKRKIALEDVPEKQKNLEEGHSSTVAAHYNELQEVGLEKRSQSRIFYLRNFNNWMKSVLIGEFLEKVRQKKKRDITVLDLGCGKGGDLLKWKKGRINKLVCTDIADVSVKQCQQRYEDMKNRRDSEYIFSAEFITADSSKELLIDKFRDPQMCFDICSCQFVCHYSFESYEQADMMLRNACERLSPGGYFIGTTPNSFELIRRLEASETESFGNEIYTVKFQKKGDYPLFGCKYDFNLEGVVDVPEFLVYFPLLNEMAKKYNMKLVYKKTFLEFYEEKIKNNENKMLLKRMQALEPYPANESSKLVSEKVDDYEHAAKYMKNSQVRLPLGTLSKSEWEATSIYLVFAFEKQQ
Sequence of MERS polymerase complex (12HC/7HC8) (K9N7C7 4378-5310 limits assumed): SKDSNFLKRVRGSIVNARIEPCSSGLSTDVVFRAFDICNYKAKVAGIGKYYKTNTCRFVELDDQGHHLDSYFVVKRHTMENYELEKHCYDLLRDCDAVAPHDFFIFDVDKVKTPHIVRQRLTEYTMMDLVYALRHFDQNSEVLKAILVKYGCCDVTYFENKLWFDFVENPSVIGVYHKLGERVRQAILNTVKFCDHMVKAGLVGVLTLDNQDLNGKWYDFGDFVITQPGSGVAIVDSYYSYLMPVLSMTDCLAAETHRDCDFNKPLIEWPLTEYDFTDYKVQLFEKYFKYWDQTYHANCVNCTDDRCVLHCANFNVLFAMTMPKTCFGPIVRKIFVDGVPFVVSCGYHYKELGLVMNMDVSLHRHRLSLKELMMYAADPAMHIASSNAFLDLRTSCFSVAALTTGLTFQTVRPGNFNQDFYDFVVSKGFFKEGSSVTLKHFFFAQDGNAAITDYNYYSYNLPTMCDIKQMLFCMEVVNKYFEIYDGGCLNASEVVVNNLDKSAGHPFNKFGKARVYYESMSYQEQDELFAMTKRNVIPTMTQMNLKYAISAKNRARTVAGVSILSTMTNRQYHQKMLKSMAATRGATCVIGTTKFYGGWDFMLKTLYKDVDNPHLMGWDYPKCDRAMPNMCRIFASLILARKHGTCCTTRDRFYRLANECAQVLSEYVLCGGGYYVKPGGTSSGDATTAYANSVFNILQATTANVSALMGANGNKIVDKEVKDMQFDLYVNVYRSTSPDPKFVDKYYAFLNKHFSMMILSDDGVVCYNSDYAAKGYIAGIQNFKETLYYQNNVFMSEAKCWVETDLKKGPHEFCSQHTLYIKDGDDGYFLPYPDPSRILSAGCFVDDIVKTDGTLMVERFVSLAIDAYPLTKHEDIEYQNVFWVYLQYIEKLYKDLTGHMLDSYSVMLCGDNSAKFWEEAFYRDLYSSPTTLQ
Sequence of MERS polymerase complex (12HC/7HC8) (K9N7C7 3846-3928 partner limits assumed): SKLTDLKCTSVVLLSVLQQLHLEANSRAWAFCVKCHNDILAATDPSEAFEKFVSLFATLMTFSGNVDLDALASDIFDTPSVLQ
Sequence of MERS polymerase complex (12HC/7HC8) (K9N7C7 3929-4127 partner limits assumed): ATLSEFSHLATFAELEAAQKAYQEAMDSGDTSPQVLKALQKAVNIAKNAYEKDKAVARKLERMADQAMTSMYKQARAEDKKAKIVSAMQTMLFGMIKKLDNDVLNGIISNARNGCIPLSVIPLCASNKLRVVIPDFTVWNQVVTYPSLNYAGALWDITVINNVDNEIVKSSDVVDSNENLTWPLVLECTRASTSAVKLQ
T4 sequence (P28887 1820-2008 limits assumed): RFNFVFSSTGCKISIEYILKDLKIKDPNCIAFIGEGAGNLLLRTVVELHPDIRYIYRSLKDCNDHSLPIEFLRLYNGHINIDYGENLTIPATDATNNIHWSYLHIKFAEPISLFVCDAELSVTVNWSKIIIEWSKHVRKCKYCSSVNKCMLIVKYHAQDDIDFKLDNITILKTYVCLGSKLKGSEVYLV

With `COc1nc(N)ncc1-c1cn(COCCO)cn1` [Compound 1] the CC50 (Huh7 cells) was > 50 µM, the “Antiviral activity against recombinant reporter EBOV” value [1] was “exhibited antiviral activity” and the EC50 ([1]; Huh-7, read-out: EBOV EC50) was 2.2 ± 0.3 µM. For the same compound, the EC50 [1, 6] was 2.2 ± 0.3 µM, the “Antiviral activity against MARV” value (MARV (Ci67)) was “no detectable activity” and the EC50 (MARV (Ci67); [7]) was > 100 µM. The CC50 (HeLa cells) was > 100 µM, the “Antiviral activity against SUDV” value (SUDV (Gulu)) was “no detectable activity” and the EC50 (SUDV (Gulu); [8]) was > 100 µM. For the same compound, the EC50 (Rift Valley Fever) was > 50 µM, the EC50 (Lassa Virus) was > 50 µM and the “Antiviral activity against EBOV” value (EBOV (Makona)) was “no detectable activity”. For the same compound, the EC50 (EBOV (Makona); [9]) was > 100 µM.

With `COc1nc(N)ncc1-c1cn(COCCOP(=O)(O)OP(=O)(O)OP(=O)(O)O)cn1` [Compound 2MR04] the “Inhibition of Zika virus MTase activity” value (Zika virus NS5 MTase) was “inhibits”, the IC50 (Zika virus NS5 MTase; IC50 Zika NS5-MTase) was ~22 µM and the IC50 (Zika virus NS5 MTase; IC50 in another testing (FIG. 15, effect on Zika Virus)) was ~17 µM. For the same compound, the “Inhibition of SARS-nsp14 MTase activity” value [2] was “inhibits”, the “Reduction of product / oligonucleotide synthesis by MERS polymerase” value [3] was “as effective as the 3′dGTP inhibitor; also recorded: as effective, not more effective, in reduction of oligonucleotide synthesis” and the IC50 (Dengue virus NS5 MTase) was ~22 µM. The “Inhibition of Dengue virus NS5 MTase activity” value (Dengue virus NS5 MTase) was “inhibits”, the IC50 (hMPV MTase) was ~31 µM and the “Inhibition of hMPV MTase activity” value (hMPV MTase) was “strongly inhibiting; also recorded: inhibits”. For the same compound, the IC50 (RSV MTase) was ~18 µM, the “Inhibition of RSV MTase activity” value (RSV MTase) was “strongly inhibiting” and the IC50 [4] was ~49 µM. For the same compound, the “Inhibition of RNMT (RNA Guanine-7 Methyltransferase)” value [4] was “not inhibited” and the “Reduction of product / oligonucleotide synthesis by SARS polymerase” value [5] was “comparable to the other inhibitors”.

In the case of `COc1nc(N)ncc1-c1cn(COCCOC(C)=O)cn1` [Compound 2], the EC50 (MARV (Ci67); [7]) is reported as 70 ± 27 µM, the CC50 (HeLa cells) is reported as > 100 µM and the EC50 (SUDV (Gulu); [8]) is reported as 20 ± 10 µM. The CC50 (in vitro) was > 100 µM and the EC50 (EBOV (Makona); [9]) was 44 ± 13 µM.

In the case of `CCC(CC)OC(=O)[C@@H](C)N[P@](=O)(OCCOCn1cnc(-c2cnc(N)nc2OC)c1)Oc1ccccc1` [Compound 3], the CC50 (Huh7 cells) is reported as > 50 µM, the “Antiviral activity against recombinant reporter EBOV” value [1] is reported as “active against EBOV at a similar concentration; also recorded: exhibited antiviral activity” and the “Potency of McGuigan prodrug relative to compound 1” value [1] is reported as ~10 fold. The EC50 ([1]; Huh-7, read-out: EBOV EC50) was 27.2 ± 2.2 µM, the EC50 [1, 6] was 27.2 ± 2.2 µM and the “Antiviral activity against MARV” value (MARV (Ci67)) was “Activity against all three viruses was observed”. The EC50 (MARV (Ci67); read-out: EC50 MARV in Hela cells (FIGS. 3-5)) was 62.3 µM, the EC50 (MARV (Ci67); [7]) was 62 ± 13 µM and the CC50 (HeLa cells) was > 100 µM. The “Antiviral activity against SUDV” value (SUDV (Gulu)) was “best activity against SUDV”, the EC50 (SUDV (Gulu); read-out: EC50 SUDV in Hela cells (FIGS. 3-5)) was 6.85 µM and the EC50 (SUDV (Gulu); read-out: EC50 against SUDV in HeLa cells) was 7 ± 2 µM. For the same compound, the EC50 (SUDV (Gulu); [8]) was 7 ± 2 µM, the EC50 (Rift Valley Fever) was > 50 µM and the EC50 (Lassa Virus) was > 50 µM. For the same compound, the “Antiviral activity against EBOV” value (EBOV (Makona)) was “Activity against all three viruses was observed”, the EC50 (EBOV (Makona); [9]) was 29 ± 9 µM and the EC50 (EBOV (Makona); read-out: EC50 EBOV in Hela cells (FIGS. 3-5)) was 29.1 µM. For the same compound, the EC50 (EBOV (Makona); read-out: EC50 against EBOV in HeLa cells) was 29 ± 9 µM.

In the case of `CCC(CC)COC(=O)[C@H](C)N[P@](=O)(OC[C@H]1O[C@@](C#N)(c2ccc3c(N)ncnn23)[C@H](O)[C@@H]1O)Oc1ccccc1` [GS-5734], the “Activity against MARV (literature, words)” value (MARV) is given as “very potent activity” and the “Activity against EBOV (literature, words)” value (EBOV) is given as “very potent activity”.
